According to US4387102A, “4-(N-(3',4'-Methylenedioxybenzylidene)-aminomethyl)cyclohex ane-1-carboxylic acid and derivatives thereof and pharmaceutical composition thereof” (Kureha Kagaku Kogyo Kabushiki Kaisha, priority 1980, dated 1983):

How the values were obtained:
[1] = system: polymorphonuclear leukocytes; test: Inhibition of migration of polymorphonuclear leukocytes to the inflammatory region (Granuloma-CMC-Pouch method); format: in vivo, rat; settings: single oral dose, male Donryu rats, present compound 100 mg/kg, indomethacin 10 mg/kg (footnote)
Method: Tests for inhibition of migration of polymorphonuclear leukocytes to the inflammatory region due to sodium 4-[N-(3',4'-methylenedioxybenzylidene)aminomethyl]cyclohexane-1-carboxylate were carried out following the method of Granuloma-CMC-Pouch (refer to Ishikawa et al. J. Pharmaceut. Soc. Jap., Vol. 88, page 1472, 1968).
Namely, after cutting the hair on the back of male rats (Donryu, body weight: 150 g), 5 ml of air was injected subcutaneously into the hair-cut region and further, 5 ml of aqueous 2% (W/V) solution of sodium carboxymethyl cellulose (CMC) at 37° C. was injected.
Specimens of the liquid (0.5 ml, each) effused into the pouch were collected at 3, 6 and 24 hours after 2% CMC solution were injected respectively and then the number of polymorphonuclear leukocytes in the specimen was counted after staining to determine the rate of inhibition of migration of the polymorpholeukocyte as compared to the number of the polymorpholeukocytes in the specimen collected from control animal to which the aqueous CMC solution was injected after air injection.
In this test, sodium 4-[N-(3',4'-methylenedioxybenzylidene)aminomethyl]cyclohexane-1-carboxylate was orally administered as a solution in aqueous physiological saline solution at a dose of 100 mg/kg at the time of injecting the solution of CMC, and as a control, […] at the time of injecting the solution of CMC.

rabbit's platelets = test: Inhibition of blood platelet aggregation induced by sodium arachidonate (platelet aggregation tracer PAT 4A); format: cell-based; settings: 400 micromols sodium arachidonate
Method: (5-1) Test for inhibition of platelet aggregation was carried out while using rabbit's platelets, an aqueous physiological saline solution of sodium 4-[N-([…]-methylenedioxybenzylidene)aminomethyl]cyclohexane-1-carboxylate and 400 micromols of sodium arachidonate as the aggregation agent in a platelet aggregation tracer PAT 4A (made by Niko Bioscience Company, Japan) as the testing apparatus.

female JCL-ICR mice = test: Acute oral toxicity test; format: in vivo, mouse; settings: 3000 mg/kg, female JCL-ICR mice of five weeks
Method: (5-2) Acute oral toxicity test were carried out by orally administering aqueous solutions of sodium 4-[N-(3',4'-methylenedioxybenzylidene)aminomethyl]cyclohexane-1-carboxylate to groups of female JCL-ICR mice of five weeks after birth.

[2] = 3 hours of injection of CMC, control 3.5 × 10^3
[3] = 6 hours of injection of CMC, control 5.9 × 10^3
[4] = 24 hours of injection of CMC, control 14.9 × 10^3

SMILES	R.I. (inhibitory rate of migration of polymorphonuclear leukocytes into the pouch as compared to control) ([1]; 3 hours of injection of CMC) [%]	Number of polymorphonuclear leukocytes [1, 2]	R.I. (inhibitory rate of migration of polymorphonuclear leukocytes into the pouch as compared to control) ([1]; 6 hours of injection of CMC) [%]	Number of polymorphonuclear leukocytes [1, 3]	R.I. (inhibitory rate of migration of polymorphonuclear leukocytes into the pouch as compared to control) ([1]; 24 hours of injection of CMC) [%]	Number of polymorphonuclear leukocytes [1, 4]	percent of inhibition of the aggregation of the platelets by sodium arachidonate (rabbit's platelets; 500 micromols compound) [%]	percent of inhibition of the aggregation of the platelets by sodium arachidonate (rabbit's platelets; 1000 micromols compound) [%]	percent of inhibition of the aggregation of the platelets by sodium arachidonate (rabbit's platelets; 1500 micromols compound) [%]	abnormality in acute oral toxicity test (female JCL-ICR mice)
COc1ccc2c(c1)c(CC(=O)O)c(C)n2C(=O)c1ccc(Cl)cc1 [Indomethacin, indomethacin, reference compound]	34	2.3 × 10^3 Number/mm^3	31	4.1 × 10^3 Number/mm^3	28	10.8 × 10^3 Number/mm^3				
O=C([O-])C1CCC(CN=Cc2ccc3c(c2)OCO3)CC1.[Na+] (stereo not shown) [Present compound, sodium 4-[N-(3',4'-methylenedioxybenzylidene)aminomethyl]cyclohexane-1-carboxylate]	46	1.9 × 10^3 Number/mm^3	54	2.7 × 10^3 Number/mm^3	32	10.1 × 10^3 Number/mm^3	30	75	100	no abnormality was found
